This assay concerns the target T1, asPARP-1 in nuclei from Parp1−/− MEFs (Mus musculus, UniProt P11103, L876A).
T1 construct: expressed in transfected cells; host or cells: Parp1-/- mouse embryonic fibroblasts, lentiviral transduction, isolated nuclei
The assay can be described thus: 8-Bu(3-yne)T-ADP-ribosylation reactions in intact nuclei. Particulars: Parp1−/− MEF nuclei, 250 μM analog, 30 minutes at 25° C. The format is cell-based. Here is the method: 50% confluent MEF cells expressing asPARP-1 were harvested with cold PBS using a rubber policeman and collected by centrifugation for 5 minutes at 800 RCF at 4° C. Cells were resuspended for 10 minutes to facilitate cell swelling in Nuclear Isolation Buffer (10 mM HEPES, pH 8.0, 2 mM MgCl2, 3 mM CaCl2, 300 mM Sucrose, 1 mM DTT, 1 mM PMSF, 4 mM Benzamidine, 1 μM Aprotinin, 100 μM Leupeptin, 1 μM Pepstatin A, and 1 in 250 parts SIGMA Phosphatase Inhibitor Cocktails 2 and 3). Nuclei were released from cells by addition of NP-40 to 0.65% under medium vortex and immediately collected by centrifugation at 10,000 RCF for 1 minute at 4° C. […]
Following 8-Bu(3-yne)T-ADP-ribosylation in intact nuclei from MEFs as described above, the nuclei were washed once with Nuclei Click Reaction Buffer (10 mM HEPES, pH 8.0, 10 mM NaCl, 10 mM spermidine, 0.1% NP-40, with freshly added protease inhibitors) and then clicked twice to Alexa Fluor 488 by the sequential addition of 100 μM azido-Alexa Fluor 488 (Life Technologies), a pre-formed complex of CuSO4:THPTA (1.0 mM:5.0 mM), and 5 mM sodium ascorbate. […] Fluorescence was visualized via confocal microscopy using a Leica TCS SP2 Confocal Microscope.

The structures appear in SMILES notation. Entries after “also recorded” stand apart in the source; their conditions may differ.

T1 sequence (P11103 whole entry L876A): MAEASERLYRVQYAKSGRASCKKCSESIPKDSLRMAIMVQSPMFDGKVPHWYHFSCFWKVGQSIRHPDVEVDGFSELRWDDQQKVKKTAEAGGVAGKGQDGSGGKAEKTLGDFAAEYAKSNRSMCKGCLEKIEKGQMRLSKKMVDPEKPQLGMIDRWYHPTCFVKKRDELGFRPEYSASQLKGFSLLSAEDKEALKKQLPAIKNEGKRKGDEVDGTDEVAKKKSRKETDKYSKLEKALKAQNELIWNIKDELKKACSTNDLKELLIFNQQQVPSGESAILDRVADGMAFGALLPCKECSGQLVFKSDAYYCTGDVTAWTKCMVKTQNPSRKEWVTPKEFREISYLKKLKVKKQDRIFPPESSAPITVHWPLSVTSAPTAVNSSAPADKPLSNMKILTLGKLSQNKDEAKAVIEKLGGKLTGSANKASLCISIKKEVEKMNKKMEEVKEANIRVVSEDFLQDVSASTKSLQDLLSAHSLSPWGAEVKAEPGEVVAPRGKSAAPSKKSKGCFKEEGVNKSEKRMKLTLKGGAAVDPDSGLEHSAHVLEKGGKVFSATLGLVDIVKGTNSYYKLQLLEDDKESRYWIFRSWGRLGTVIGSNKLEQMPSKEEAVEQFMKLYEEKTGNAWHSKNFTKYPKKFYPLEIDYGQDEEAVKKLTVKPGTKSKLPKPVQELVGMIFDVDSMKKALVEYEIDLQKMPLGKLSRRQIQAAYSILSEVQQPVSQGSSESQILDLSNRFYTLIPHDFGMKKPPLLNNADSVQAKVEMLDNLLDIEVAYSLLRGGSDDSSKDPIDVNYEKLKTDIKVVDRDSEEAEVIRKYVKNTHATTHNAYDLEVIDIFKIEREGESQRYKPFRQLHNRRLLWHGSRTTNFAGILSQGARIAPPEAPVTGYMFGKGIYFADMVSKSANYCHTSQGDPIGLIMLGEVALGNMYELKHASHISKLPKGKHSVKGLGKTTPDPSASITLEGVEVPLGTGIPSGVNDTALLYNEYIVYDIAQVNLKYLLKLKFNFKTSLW

As to `C#CCCSc1nc2c(N)ncnc2n1[C@@H]1O[C@H](COP(=O)(O)OP(=O)(O)OC[C@H]2O[C@@H]([n+]3cccc(C(N)=O)c3)C(O)C2O)[C@H](O)C1O` (stereo partly shown) [8-Bu(3-yne)T-NAD^+], the “ADP-ribosylation in intact nuclei expressing asPARP-1” value is “catalytically active; also recorded: clearly evident”.

The values above are taken from patent publication US9926340B2, “NAD analogs and methods of using said NAD analogs in determining ribosylation of proteins with PARP mutants” (The Board of Regents of the University of Texas System, priority 2015, dated 2018).
